Test results reported in US9751869B2, “LXR modulators” (BRISTOL-MYERS SQUIBB COMPANY, priority 2013, dated 2017).

Molecular target: T1, LXRβ (Homo sapiens, UniProt P55055)
T1 construct: Co-transfection expression plasmids, comprising full-length LXRα (pCMX-h LXRα or LXRβ (pCMX-hLXRβ)); expressed in transfected cells; host or cells: CV-1 African green monkey kidney cells, transient transfection with pCMX-hLXRβ
T1 sequence (P55055 1-460): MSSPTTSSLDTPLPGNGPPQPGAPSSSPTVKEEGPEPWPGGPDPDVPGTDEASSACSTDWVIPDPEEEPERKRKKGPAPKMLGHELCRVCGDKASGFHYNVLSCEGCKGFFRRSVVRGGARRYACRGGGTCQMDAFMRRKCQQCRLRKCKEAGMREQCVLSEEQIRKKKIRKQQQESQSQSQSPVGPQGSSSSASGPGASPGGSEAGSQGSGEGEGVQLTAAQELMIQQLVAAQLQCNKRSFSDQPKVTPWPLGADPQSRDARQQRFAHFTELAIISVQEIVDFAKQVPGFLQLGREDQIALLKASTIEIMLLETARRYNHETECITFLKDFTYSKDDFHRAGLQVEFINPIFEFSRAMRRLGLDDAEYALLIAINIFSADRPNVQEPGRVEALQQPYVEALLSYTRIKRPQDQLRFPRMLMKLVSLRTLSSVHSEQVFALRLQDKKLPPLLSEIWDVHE
T1 sequence (P19793 1-462 partner): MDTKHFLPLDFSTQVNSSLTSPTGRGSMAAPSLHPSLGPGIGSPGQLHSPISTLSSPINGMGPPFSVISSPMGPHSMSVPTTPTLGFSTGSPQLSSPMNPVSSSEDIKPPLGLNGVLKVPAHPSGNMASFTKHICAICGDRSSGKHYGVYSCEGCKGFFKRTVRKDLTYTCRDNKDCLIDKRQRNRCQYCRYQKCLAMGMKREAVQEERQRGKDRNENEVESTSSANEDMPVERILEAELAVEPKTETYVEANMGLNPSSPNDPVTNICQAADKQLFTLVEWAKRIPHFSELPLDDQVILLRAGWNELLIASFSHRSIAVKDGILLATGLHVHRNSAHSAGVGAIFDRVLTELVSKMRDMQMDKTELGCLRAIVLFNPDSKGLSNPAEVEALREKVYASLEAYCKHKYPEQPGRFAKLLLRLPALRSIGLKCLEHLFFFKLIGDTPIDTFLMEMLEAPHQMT
Experiment: LXR/LXRE co-transfection assay (luciferase reporter) in CV-1 cells, LXRβ
Assay type: cell-based
Settings: for EC50: CV-1 cells transfected with pCMX-hLXRβ and LXREx1-Tk-Luciferase, 20 hours incubation, read-out: LXRbeta agonism EC50; for Emax: read-out: LXRbeta % EFFICACY
Source text: To measure the ability of compounds to activate or inhibit the transcriptional activity of LXR in a cell based assay, the co-transfection assay was used. It has been shown that LXR functions as a heterodimer with RXR. For the co-transfection assay, expression plasmids for LXRα and LXRβ are introduced separately via transient transfection into mammalian cells along with a luciferase reporter plasmid that contains one copy of a DNA sequence that is bound by LXR-RXR heterodimers (LXRE; Willy, P. et. al. 1995). LXRs heterodimerize with the endogenous RXR. Treatment of transfected cells with an LXR agonist increases the transcriptional activity of LXR, which is measured by an increase in luciferase activity.
Co-transfection expression plasmids, comprising full-length LXRα (pCMX-h LXRα or LXRβ (pCMX-hLXRβ), reporter plasmid (LXREx1-Tk-Luciferase), and control (pCMX-Galactosidase expression vector) (Willey et al. Genes & Development 9 1033-1045 (1995)).
CV-1 cells were prepared 24 hours prior to the experiment by plating them into T-175 flasks or 500 cm^2 dishes in order to achieve 70-80% confluency on the day of the transfection. The number of cells to be transfected was determined by the number of plates to be screened. Each well of a 384 well plate requires 1.5×10^4 cells. DNA Transfection Reagent was prepared by mixing the required plasmid DNAs with a cationic lipid transfection reagent Transit 2020 (Mirus Bio) for CV1 by following the instructions provided with the reagents. Optimal DNA amounts were determined empirically per cell line and size of vessel to be transfected. For each T175 cm^2 flask a total of 44.4 ug for CV1 of DNA, 133 ul Transit2020 and 4.5 ml DMEM for CV1 was mixed and added. Cells were then incubated at least 5 hours at 37° C. to prepare screening cells.
Assay plates were prepared by dispensing 5 μL of compound per well of a 384 well plate to achieve final compound concentration of 10 μM and no more than 0.5% DMSO. Media was removed from the screening cells, the cells trypsinized, harvested cells by centrifugation, counted, and plated at a density of approximately 1.5×10^4 cells in the 384 well assay plate prepared above in a volume of about 95 uL. Assay plates containing both compounds and screening cells (100 μL in total volume) were incubated for 20 hours at 37° C.
After incubation with compounds, media was removed from the cells and luciferase assay reagent (30 μL/well) added. After ˜2 minutes at ambient temperature, the assay plates were read on a luminometer (PE Biosystems Northstar reader with on-board injectors, or Envision (Perkin Elmer) or equivalent).
The LXR/LXRE co-transfection assay can be used to establish the EC50/IC50 values for potency and percent activity or inhibition for efficacy. Efficacy defines the activity of a compound relative to a high control ((N-(3-((4-fluorophenyl)-(naphthalene-2-sulfonyl)amino)propyl)-2,2-dimethylpropionamide)) or a low control (DMSO/vehicle). The dose response curves are generated from a 10 point curve with concentrations differing by ½ LOG units. Each point represents the average of 4 wells of data from a 384 well plate.
The data from this assay is fitted to the following equation, from which the EC50 value may be solved: Y=Bottom+(Top−Bottom)/(1+10^((log EC50-X)*HillSlope)).
The EC50/IC50 is therefore defined as the concentration at which an agonist or antagonist elicits a response that is halfway between the Top (maximum) and Bottom (baseline) values. The EC50/IC50 values represented are the averages of at least 2 and normally 3 independent experiments. The determination of the relative efficacy or % control for an agonist is by comparison to the maximum response achieved by ((N-(3-((4-fluorophenyl)-(naphthalene-2-sulfonyl)-amino)propyl)-2,2-dimethylpropionamide) that is measured individually in each dose response experiment.
Table 1 lists LXRβ EC50 values and % efficacy measurements in the cotransfection assay for examples of this invention.

[1] = CV-1 cells, relative to maximum response of high control N-(3-((4-fluorophenyl)-(naphthalene-2-sulfonyl)amino)propyl)-2,2-dimethylpropionamide

Structure (SMILES) | EC50 | Emax [1] | LXRbeta % EFFICACY [1]
Cc1nc(-c2ccc3c(c2)OC(F)(F)O3)c(-c2cc(-c3cc(F)c(CO)c(S(C)(=O)=O)c3)ccc2-c2cc(C(=O)NC3CC3)nn2C)o1 [Example 108, N-cyclopropyl-5-(3-(4-(2,2-difluorobenzo[d][1,3]dioxol-5-yl)-2-methyloxazol-5-yl)-3′-fluoro-4′-(hydroxymethyl)-5′-(methylsulfonyl)-[1,1′-biphenyl]-4-yl)-1-methyl-1H-pyrazole-3-carboxamide] | 529 nM | 30% | 
Cc1nc(-c2ccc3c(c2)OC(F)(F)O3)c(-c2cc(-c3cc(F)c(CO)c(S(C)(=O)=O)c3)ccc2-c2cc(C3(C#N)CC3)nn2C)o1 [Example 60, 1-(5-(3-(4-(2,2-difluorobenzo[d][1,3]dioxol-5-yl)-2-methyloxazol-5-yl)-3′-fluoro-4′-(hydroxymethyl)-5′-(methylsulfonyl)-[1,1′-biphenyl]-4-yl)-1-methyl-1H-pyrazol-3-yl)cyclopropanecarbonitrile] | 7 nM | 85% | 
Cc1nc(-c2ccc(OC(F)(F)F)cc2)c(-c2cc(-c3cccc(C(C)(C)C(N)=O)c3)ccc2-n2ccc(C(=O)NCC(F)(F)F)n2)o1 [Example 366] | 293 nM | 28% | 
Cc1nc(-c2ccc3c(c2)OC(F)(F)O3)c(-c2cc(-c3cc(F)c(CO)c(S(C)(=O)=O)c3)ccc2-c2cc(C#N)nn2C)o1 [Example 122, 5-(3-(4-(2,2-difluorobenzo[d][1,3]dioxol-5-yl)-2-methyloxazol-5-yl)-3′-fluoro-4′-(hydroxymethyl)-5′-(methylsulfonyl)-[1,1′-biphenyl]-4-yl)-1-methyl-1H-pyrazole-3-carbonitrile] | 63 nM | 22% | 
Cc1nc(-c2ccc3c(c2)OC(F)(F)O3)c(-c2cc(-c3cc(F)c(CO)c(S(C)(=O)=O)c3)ccc2-c2cc(C(F)(F)C(=O)NCC(F)(F)F)nn2C)o1 [Example 90, 2-(5-(3-(4-(2,2-difluorobenzo[d][1,3]dioxol-5-yl)-2-methyloxazol-5-yl)-3′-fluoro-4′-(hydroxymethyl)-5′-(methylsulfonyl)biphenyl-4-yl)-1-methyl-1H-pyrazol-3-yl)-2,2-difluoro-N-(2,2,2-trifluoroethyl)acetamide] | 58 nM | 34% | 
Cc1nc(-c2ccc3c(c2)OC(F)(F)O3)c(-c2cc(-c3cc(F)c(CO)c(S(C)(=O)=O)c3)ccc2-c2cc(C(F)(F)C(=O)N3CCOCC3)nn2C)o1 [Example 81, 2-(5-(3-(4-(2,2-difluorobenzo[d][1,3]dioxol-5-yl)-2-methyloxazol-5-yl)-3′-fluoro-4′-(hydroxymethyl)-5′-(methylsulfonyl)biphenyl-4-yl)-1-methyl-1H-pyrazol-3-yl)-2,2-difluoro-1-morpholinoethanone] | 184 nM | 43% | 
Cc1nc(-c2ccc3c(c2)OC(F)(F)O3)c(-c2cc(-c3cccc(S(C)(=O)=O)c3)ccc2-c2cc(C(C)C#N)nn2C)o1 (stereo not shown) [Example 117, 2-(5-(3-(4-(2,2-difluorobenzo[d][1,3]dioxol-5-yl)-2-methyloxazol-5-yl)-3′-(methylsulfonyl)-[1,1′-biphenyl]-4-yl)-1-methyl-1H-pyrazol-3-yl)propanenitrile] | 49 nM |  | 70%

Next, values leading:

EC50 | Emax [1] | LXRbeta % EFFICACY [1] | Structure (SMILES)
116 nM | 28% |  | Cc1nc(-c2ccc(OC(F)(F)F)cc2)c(-c2cc(-c3cccc(S(C)(=O)=O)c3)ccc2-n2cc(C#N)c(C3CC3)n2)o1 [Example 447, 3-cyclopropyl-1-(3-(2-methyl-4-(4-(trifluoromethoxy)phenyl)oxazol-5-yl)-3′-(methylsulfonyl)-[1,1′-biphenyl]-4-yl)-1H-pyrazole-4-carbonitrile]
159 nM | 44% |  | Cc1nc(-c2ccc(OC(F)(F)F)cc2)c(-c2cc(-c3cccc(S(C)(=O)=O)c3)ccc2-c2cc(C(F)(F)C(N)=O)nn2C)o1 [Example 128]
46 nM | 27% |  | Cc1nc(-c2ccc(OC(F)(F)F)cc2)c(-c2cc(-c3cccc(S(C)(=O)=O)c3)ccc2-c2cc(C(F)(F)C(C)(C)O)nn2C)o1 [Example 48, 1,1-difluoro-2-methyl-1-(1-methyl-5-(3-(2-methyl-4-(4-(trifluoromethoxy)phenyl)oxazol-5-yl)-3′-(methylsulfonyl)biphenyl-4-yl)-1H-pyrazol-3-yl)propan-2-ol]
652 nM | 12% |  | CS(=O)(=O)c1cccc(-c2ccc(-n3ccc(C(N)=O)n3)c(-c3oc(C4CC4)nc3-c3ccc(OC(F)(F)F)cc3)c2)c1 [Example 361, 1-(3-(2-cyclopropyl-4-(4-(trifluoromethoxy)phenyl)oxazol-5-yl)-3′-(methylsulfonyl)-[1,1′-biphenyl]-4-yl)-1H-pyrazole-3-carboxamide]
92 nM | 22% |  | Cc1nc(-c2ccc(OC(F)(F)F)cc2)c(-c2cc(-c3cccc(S(C)(=O)=O)c3)ccc2-n2ccc(C(C)(C)C#N)n2)o1 [Example 373]
744 nM | 40% |  | Cc1cc(C(F)(F)F)n(-c2ccc(-c3cccc(S(C)(=O)=O)c3)cc2-c2nc(C)oc2-c2ccc(OC(F)F)cc2)n1 [Example 393, 5-(4-(difluoromethoxy)phenyl)-2-methyl-4-(4-(3-methyl-5-(trifluoromethyl)-1H-pyrazol-1-yl)-3′-(methylsulfonyl)biphenyl-3-yl)oxazole]
421 nM | 47% |  | Cc1nc(-c2ccc(OC(F)(F)F)cc2)c(-c2cc(-c3cccc(S(C)(=O)=O)c3)ccc2-n2ccc(COC(N)=O)n2)o1 [Example 374, (1-(3-(2-methyl-4-(4-(trifluoromethoxy)phenyl)oxazol-5-yl)-3′-(methylsulfonyl)-[1,1′-biphenyl]-4-yl)-1H-pyrazol-3-yl) methyl carbamate]
